Measured values taken from ChEMBL document CHEMBL5252668, “Targeting the "Undruggable" Driver Protein, KRASG12D, as Potential Therapy in Prostate Cancer” (ACS Med Chem Lett, 2023).

Legend:
[1] = biological target: T1, GTPase KRas (Homo sapiens, UniProt P01116, G12D)
[2] = biological target: T1, GTPase KRas; remark: listed apart in the source

T1 sequence (P01116 whole entry G12D): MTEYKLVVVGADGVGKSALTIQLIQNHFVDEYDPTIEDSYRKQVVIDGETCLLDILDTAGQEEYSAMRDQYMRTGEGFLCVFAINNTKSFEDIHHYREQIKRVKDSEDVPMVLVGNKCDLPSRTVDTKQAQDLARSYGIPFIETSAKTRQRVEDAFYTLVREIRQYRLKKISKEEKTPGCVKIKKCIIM

IC50 [1]	IC50 [2]	Structure (SMILES)
9 nM	2 nM	Oc1cc(-c2ncc3c(N4CCCC5(CCO5)C4)nc(OC[C@@]45CCCN4C[C@H](F)C5)nc3c2F)c2c(F)c(F)ccc2c1 (stereo not given in full)
22 nM	1 nM	CCc1cccc2cc(O)cc(-c3ncc4c(N5CCCC6(CC(O)C6)C5)nc(OC[C@@]56CCCN5C[C@H](F)C6)nc4c3F)c12 (stereo not given in full)
43 nM	1 nM	C#Cc1c(F)ccc2cc(O)cc(-c3ncc4c(N5CCCC6(CCO6)C5)nc(OC[C@@]56CCCN5C[C@H](F)C6)nc4c3F)c12 (stereo not given in full)
3 nM	1 nM	Oc1cc(-c2ncc3c(N4CCC[C@]5(CCO5)C4)nc(OC[C@@]45CCCN4C[C@H](F)C5)nc3c2F)c2c(Cl)c(F)ccc2c1
119 nM	2 nM	Oc1cc(-c2ncc3c(N4CCCC5(CC(O)C5)C4)nc(OC[C@@]45CCCN4C[C@H](F)C5)nc3c2F)c2c(F)c(F)ccc2c1 (stereo not given in full)
34 nM	2 nM	CCc1c(F)ccc2cc(O)cc(-c3ncc4c(N5CC(O)CC6(CC6)C5)nc(OC[C@@]56CCCN5C[C@H](F)C6)nc4c3F)c12 (stereo not given in full)

Further lines, the compound ahead of its results:

Structure (SMILES)	IC50 [1]	IC50 [2]
CCc1c(F)ccc2cc(O)cc(-c3ncc4c(N5CCCC6(CCO6)C5)nc(OC[C@@]56CCCN5C[C@H](F)C6)nc4c3C)c12 (stereo not given in full)	7 nM	4 nM
CCc1cccc2cc(O)cc(-c3ncc4c(N5CCCC6(CCO6)C5)nc(OC[C@@]56CCCN5C[C@H](F)C6)nc4c3F)c12 (stereo not given in full)	11 nM	3 nM
CCc1c(F)ccc2cc(O)cc(-c3ncc4c(N5CCCC6(CC(=O)N6)C5)nc(OC[C@@]56CCCN5C[C@H](F)C6)nc4c3F)c12 (stereo not given in full)	44 nM	2 nM
Oc1cc(Cl)c(C2CC2)c(-c2ncc3c(N4CCCC5(CCO5)C4)nc(OC[C@@]45CCCN4C[C@H](F)C5)nc3c2F)c1 (stereo not given in full)	66 nM	2 nM
